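96-well plates; 48 h exposure; 5 concentrations. Endpoints by linear interpolation between flanking doses. Not reached: highest tested concentration assigned. GI50 marks 50% less growth. At the TGI there is no net growth.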
Tests used:
Test in all cases: NCI tumour cell line growth inhibition, 48 h
OVCAR-5 ovarian = system: OVCAR-5 ovarian
EKVX NSCLC = system: EKVX NSCLC
MDA-MB-435 = system: MDA-MB-435
SK-MEL-5 melanoma = system: SK-MEL-5 melanoma
A549 NSCLC = system: A549 NSCLC
DMS 114 small cell lung = system: DMS 114 small cell lung
SNB-78 CNS = system: SNB-78 CNS
DMS 273 small cell lung = system: DMS 273 small cell lung
XF 498 CNS = system: XF 498 CNS
M19-MEL melanoma = system: M19-MEL melanoma
KM20L2 colon = system: KM20L2 colon
LXFL 529 NSCLC = system: LXFL 529 NSCLC
DLD-1 colon = system: DLD-1 colon
HOP-18 NSCLC = system: HOP-18 NSCLC
P388 leukemia = system: P388 leukemia

## Cc1ccc(C(C)C)c(OCC(=O)N/N=C/c2c[nH]c3ccc(Br)cc23)c1
OVCAR-5 ovarian
  TGI: 17.6 µM
EKVX NSCLC
  TGI: 11.1 µM
MDA-MB-435
  TGI: 2.93 µM
SK-MEL-5 melanoma
  TGI: 4.43 µM
A549 NSCLC
  TGI: 12.5 µM

## O=C1C(c2c(O)[nH]c3ccc(Cl)cc23)=Nc2ccccc21
OVCAR-5 ovarian
  TGI: > 28.1 µM
EKVX NSCLC
  TGI: > 53.1 µM
MDA-MB-435
  TGI: > 100 µM
SK-MEL-5 melanoma
  TGI: 17.7 µM
A549 NSCLC
  TGI: 20.7 µM

## Cc1cccc2c1Sc1ccccc1C2NC(=O)CN(C)C (stereo unspecified)
DMS 114 small cell lung
  TGI: > 100 µM
OVCAR-5 ovarian
  TGI: > 100 µM
SNB-78 CNS
  TGI: > 100 µM
EKVX NSCLC
  TGI: > 100 µM
DMS 273 small cell lung
  TGI: > 100 µM
XF 498 CNS
  TGI: > 100 µM
M19-MEL melanoma
  TGI: > 100 µM
KM20L2 colon
  TGI: 37.4 µM
SK-MEL-5 melanoma
  TGI: > 100 µM
LXFL 529 NSCLC
  TGI: > 100 µM
A549 NSCLC
  TGI: > 100 µM

## CN(C)c1cccc(OC(=O)NCCCl)c1
DMS 114 small cell lung
  TGI: > 100 µM
OVCAR-5 ovarian
  TGI: > 100 µM
SNB-78 CNS
  GI50: > 100 µM
  TGI: > 100 µM
EKVX NSCLC
  TGI: > 100 µM
DMS 273 small cell lung
  TGI: > 100 µM
XF 498 CNS
  TGI: > 100 µM
DLD-1 colon
  TGI: > 100 µM
M19-MEL melanoma
  TGI: > 100 µM
KM20L2 colon
  GI50: > 100 µM
  TGI: > 100 µM
SK-MEL-5 melanoma
  TGI: > 100 µM
HOP-18 NSCLC
  TGI: > 100 µM
A549 NSCLC
  TGI: > 100 µM

## O=C(Sc1n[nH]c(=O)[nH]c1=O)c1cccc2nc3ccccc3nc12
OVCAR-5 ovarian
  TGI: > 100 µM
EKVX NSCLC
  TGI: > 100 µM
MDA-MB-435
  TGI: 29 µM
SK-MEL-5 melanoma
  TGI: 14.5 µM
A549 NSCLC
  TGI: 50.4 µM

## CSCC(CO)NC(=O)/C=C/c1c(C)[nH]c(=O)[nH]c1=O (stereo unspecified)
DMS 114 small cell lung
  TGI: > 801 µM
OVCAR-5 ovarian
  TGI: > 875 µM
SNB-78 CNS
  TGI: > 875 µM
EKVX NSCLC
  TGI: 872 µM
DMS 273 small cell lung
  TGI: > 875 µM
XF 498 CNS
  TGI: 815 µM
DLD-1 colon
  TGI: > 875 µM
M19-MEL melanoma
  TGI: > 875 µM
KM20L2 colon
  TGI: > 875 µM
SK-MEL-5 melanoma
  TGI: > 875 µM
P388 leukemia
  TGI: > 875 µM
HOP-18 NSCLC
  TGI: > 875 µM
A549 NSCLC
  TGI: > 875 µM

## O=S(O)CCCSSSCCCS(=O)O
DMS 114 small cell lung
  TGI: > 100 µM
OVCAR-5 ovarian
  TGI: > 100 µM
SNB-78 CNS
  TGI: > 100 µM
EKVX NSCLC
  TGI: > 100 µM
XF 498 CNS
  TGI: > 100 µM
DLD-1 colon
  TGI: > 100 µM
M19-MEL melanoma
  TGI: > 100 µM
KM20L2 colon
  TGI: > 100 µM
LXFL 529 NSCLC
  TGI: > 100 µM

## N#C/C(=C\c1ccc([N+](=O)[O-])o1)c1n[nH]c(Cc2ccccc2)n1
OVCAR-5 ovarian
  TGI: 3.5 µM
EKVX NSCLC
  TGI: 8.31 µM
MDA-MB-435
  TGI: 6.92 µM
SK-MEL-5 melanoma
  TGI: 2.51 µM
A549 NSCLC
  TGI: 15 µM

## c1csc(-c2ccc(CNc3c4ccccc4nc4ccccc34)cc2)c1
MDA-MB-435
  GI50: 0.322 µM
  TGI: 1.09 µM
SK-MEL-5 melanoma
  GI50: 1.63 µM
  TGI: 3.01 µM

## NNC(=O)c1cc([N+](=O)[O-])ccc1NC(=O)C12CC3CC(CC(C3)C1)C2
OVCAR-5 ovarian
  TGI: > 100 µM
EKVX NSCLC
  TGI: > 100 µM
MDA-MB-435
  TGI: 48.5 µM
SK-MEL-5 melanoma
  TGI: > 100 µM
A549 NSCLC
  TGI: 51.7 µM

## CC(=O)OC1CC(OC2C(O)CC(OC3C(O)CC(OC4CCC5(C)C(CCC6C5CCC5(C)C(C7=CC(=O)OC7)CCC65O)C4)OC3C)OC2C)OC(C)C1OC1OC(CO)C(O)C(O)C1O (stereo unspecified)
OVCAR-5 ovarian
  TGI: 0.116 µM
EKVX NSCLC
  TGI: 0.0536 µM
MDA-MB-435
  TGI: 0.172 µM
SK-MEL-5 melanoma
  TGI: 0.107 µM
A549 NSCLC
  TGI: 0.0221 µM

## COC(=O)c1sc2c(c1C(=O)OC)C(=NC(C)(C)C)SC2=NC(C)(C)C
OVCAR-5 ovarian
  TGI: 37.2 µM
EKVX NSCLC
  TGI: 34.7 µM
MDA-MB-435
  TGI: 34.6 µM
SK-MEL-5 melanoma
  TGI: 29.5 µM
A549 NSCLC
  TGI: 41.8 µM

## COc1cc(NCCC(=O)O)c2ncccc2c1
OVCAR-5 ovarian
  TGI: > 100 µM
EKVX NSCLC
  TGI: > 100 µM
MDA-MB-435
  TGI: > 100 µM
SK-MEL-5 melanoma
  TGI: > 100 µM
A549 NSCLC
  TGI: > 100 µM

## c1ccc2c(c1)SP1Sc3ccccc3P21 (stereo unspecified)
DMS 114 small cell lung
  TGI: > 100 µM
OVCAR-5 ovarian
  TGI: > 100 µM
SNB-78 CNS
  TGI: > 100 µM
EKVX NSCLC
  TGI: > 100 µM
DMS 273 small cell lung
  TGI: > 100 µM
XF 498 CNS
  TGI: > 100 µM
DLD-1 colon
  TGI: > 100 µM
M19-MEL melanoma
  TGI: > 100 µM
KM20L2 colon
  TGI: > 100 µM
SK-MEL-5 melanoma
  TGI: > 100 µM
P388 leukemia
  TGI: > 100 µM
HOP-18 NSCLC
  TGI: 73.1 µM
A549 NSCLC
  TGI: > 100 µM

## CN(c1ccccc1)c1nc(=[N+]2CCCC2)ss1
DMS 114 small cell lung
  TGI: > 100 µM
SNB-78 CNS
  TGI: > 100 µM
EKVX NSCLC
  TGI: > 100 µM
DMS 273 small cell lung
  TGI: > 100 µM
KM20L2 colon
  TGI: > 100 µM
SK-MEL-5 melanoma
  TGI: > 100 µM
LXFL 529 NSCLC
  TGI: > 100 µM
HOP-18 NSCLC
  TGI: > 100 µM
A549 NSCLC
  TGI: > 100 µM

## CO/C=C1\OC(=O)C=C1OC
DMS 114 small cell lung
  TGI: > 100 µM
OVCAR-5 ovarian
  TGI: > 100 µM
SNB-78 CNS
  TGI: > 100 µM
EKVX NSCLC
  TGI: > 100 µM
DMS 273 small cell lung
  TGI: > 100 µM
XF 498 CNS
  TGI: > 100 µM
DLD-1 colon
  TGI: > 100 µM
M19-MEL melanoma
  TGI: > 100 µM
SK-MEL-5 melanoma
  TGI: > 100 µM
P388 leukemia
  TGI: > 100 µM
HOP-18 NSCLC
  TGI: > 100 µM
A549 NSCLC
  TGI: > 100 µM

## Clc1cc(OCc2nn3c(Cc4ccccc4)nnc3s2)c(Cl)cc1OCc1nn2c(Cc3ccccc3)nnc2s1
OVCAR-5 ovarian
  TGI: > 100 µM
EKVX NSCLC
  TGI: > 100 µM
MDA-MB-435
  TGI: > 100 µM
SK-MEL-5 melanoma
  TGI: > 100 µM
A549 NSCLC
  TGI: > 100 µM

## CC[C@@H]([C@H](O)c1ccccc1Cl)[N+](=O)[O-]
OVCAR-5 ovarian
  TGI: > 100 µM
EKVX NSCLC
  TGI: > 100 µM
MDA-MB-435
  TGI: > 100 µM
SK-MEL-5 melanoma
  TGI: > 100 µM
A549 NSCLC
  TGI: > 100 µM

## Nc1nc(Cl)c(N)c(NCC2(CO)CCC(CCc3ccccc3)C2)n1 (stereo unspecified)
OVCAR-5 ovarian
  TGI: 63.5 µM
EKVX NSCLC
  TGI: > 69.9 µM
MDA-MB-435
  TGI: 27 µM
SK-MEL-5 melanoma
  TGI: 15.1 µM
A549 NSCLC
  TGI: > 100 µM

## Cc1ccc(Nc2nc(=O)c3c([nH]c4ccccc43)s2)cc1
EKVX NSCLC
  TGI: 64.2 µM
MDA-MB-435
  TGI: 7.4 µM
SK-MEL-5 melanoma
  TGI: 20.8 µM
A549 NSCLC
  TGI: 25.1 µM

## c1ccc2c(c1)SCCc1cn[nH]c1-2
DMS 114 small cell lung
  TGI: > 100 µM
OVCAR-5 ovarian
  TGI: > 100 µM
SNB-78 CNS
  TGI: > 100 µM
EKVX NSCLC
  TGI: > 100 µM
DMS 273 small cell lung
  TGI: > 100 µM
XF 498 CNS
  TGI: > 100 µM
DLD-1 colon
  TGI: > 100 µM
M19-MEL melanoma
  TGI: > 100 µM
KM20L2 colon
  TGI: > 100 µM
SK-MEL-5 melanoma
  TGI: > 100 µM
P388 leukemia
  TGI: > 100 µM
HOP-18 NSCLC
  TGI: > 100 µM
A549 NSCLC
  TGI: > 100 µM

## COCCNCc1ccc(-c2cc3nccc(Oc4ccc(NC(=O)C5(C(=O)Nc6ccc(F)cc6)CC5)cc4F)c3s2)nc1
MDA-MB-435
  GI50: 1.31 µM
  TGI: 2.68 µM
A549 NSCLC
  GI50: 1.71 µM
  TGI: 4.15 µM

## c1ccc(C2=NN=C3C(c4ccccc4)=Nc4ccccc4N3C2)cc1
OVCAR-5 ovarian
  TGI: > 94.3 µM
EKVX NSCLC
  TGI: > 68.6 µM
MDA-MB-435
  TGI: 98.7 µM
SK-MEL-5 melanoma
  TGI: 40.7 µM
A549 NSCLC
  TGI: > 100 µM

Source: PubChem BioAssay (NCI)
